{
  "source": "patent US9492436B2",
  "about": "“Azabenzimidazole derivatives” (Boehringer Ingelheim International GmbH, priority 2013, dated 2016)",
  "data": [
    {"target": "T1, AMPK complex 1 (containing alpha1beta1gamma1) (Homo sapiens, UniProt Q13131+Q9Y478)", "T1 construct": "GST (Glutathion S transferase) (N); made in house; host or cells: baculovirus; virus made in Sf9, expression in High Five cells", "assay": "In vitro AMPK activation assay (ADP-Glo Kinase Assay)", "format": "biochemical", "conditions": "30 μM ATP, 1 μM peptide, 60 min, room temperature", "excerpt": "Activated AMPK complex 1 (containing alpha1beta1gamma1) was obtained from baculovirus expression system. The gene encoding AMPK alpha1 was cloned into the pACG2T vector (BD Biosciences) to obtain a N-terminal Glutathion S transferase (GST)-fusion protein. The genes encoding AMPK beta 1 and gamma1 were cloned into the p2Bac dual multiple cloning site vector (Invitrogen) with beta1 under the control of the p10 promoter and gamma1 under the control of the PH promoter. The transfer vectors containing AMPK were co-transfected individually with AcPNV BacMagic-3 DNA (EMD Millipore) in Sf9 cells and the recombinant baculoviruses were harvested after 5 days, followed by 3 rounds of amplification of the virus stock in Sf9 cells. AMPK (alpha1beta1gamma1) was expressed in High Five 5 cells by co-infection of recombinant alpha1 virus and recombinant beta1/gamma1 virus for 72 h at 27° C. Cells were harvested by centrifugation and lysed by 3 freeze/thaw cycles in PBS with 10% glycerol and protease inhibitor cocktail (Roche). After centrifugation AMPK a1b1g1 in the supernatant was captured by immobilized glutathione (GE Healthcare), impurities were washed away with PBS and AMPK alpha1beta1gamma1 was eluted with PBS containing 20 mM reduced gluthathione. The protein buffer was then exchanged to PBS with 10% glycerol and protein concentration was determined by UV absorbance.\nThe white 384-well Optiplates (cat.no. 6007299) were purchased from PerkinElmer. The V9101 ADP-Glo Kinase Assay and ultra pure ATP (V915A) was purchased from Promega. The substrate for AMPK (NH2-HMRSAMSGLHLVKRR_CONH2) was purchased from Upstate (12-355).\nCompounds were tested in either serial dilutions or single dose concentrations. The serial compound dilutions were prepared in 100% DMSO automatically. The final DMSO concentration in the assay was 0.1%.\nThe Compound Stock Solutions were 10 mM in 100% DMSO. The compounds were solubilised at room temperature.\nIn the 384-well plates 1.25 ul of test compound in assay buffer was mixed with 1.25 ul of AMPK and 1.25 μl of the peptide (final concentration of 1 μM) and 1.25 μl of ATP (final concentration of 30 μM), both dissolved in assay buffer. This step was followed by an incubation time of 60 min. Then 5 μl of ADP Glo Reagent was added. This was followed by 40 min of incubation. Then 10 μl of Kinase Detection Reagent was admixed. The plates were sealed and after an incubation period of 30 min, the luminescence signal was measured in an Envision reader. All incubation steps were accomplished at room temperature.\nEach assay microtiter plate contained wells with vehicle controls instead of compound (0.1% DMSO in water) as reference for the low signal (100% CTL, low signal), and wells with serial dilutions of AMP (final 30 μM) as reference for high signals.\nThe luminescence signal generated was proportional to the ADP concentration produced and was correlated with AMPK activity. The analysis of the data was performed by the calculation of the percentage of ATP consumption of AMPK in the presence of the test compound compared to the consumption of ATP in the presence of AMPK without compound. (RLU(sample)/RLU(low control))*100[RLU=relative luminescence units]\nAn activator of the AMPK enzyme gave values above 100% CTL.\nEC50 values based on dose response curves are calculated with the XIFIT software using the 4 Parameter Logistic Model or Sigmoidal Dose-Response Model.", "units": {"EC50": "nM"}, "values": [
      {"compound": "CS(=O)(=Nc1ccc(-c2nc3[nH]c(O[C@@H]4CO[C@H]5[C@@H]4OC[C@H]5O)nc3cc2Cl)cc1)c1ccncc1", "note": "(stereo partly drawn) [Example 26, N-(4-(6-Chloro-2-((3R,3aR,6R,6aR)-6-hydroxyhexahydrofuro[3,2-b]furan-3-yloxy)-3H-imidazo[4,5-b]pyridin-5-yl)phenyl)-S-methyl-S-(pyridin-4-yl)-sulfoximide]", "EC50": 145},
      {"compound": "CN=S(C)(=O)c1ccc(N2CCN(c3nc4[nH]c(O[C@@H]5CO[C@H]6[C@@H]5OC[C@H]6O)nc4cc3Cl)CC2)cc1", "note": "(stereo partly drawn) [Example 29, (3R,3aR,6R,6aR)-6-(6-Chloro-5-(4-(4-(N,S-dimethylsulfonimidoyl)phenyl)piperazin-1-yl)-3H-imidazo[4,5-b]pyridin-2-yloxy)hexahydrofuro[3,2-b]furan-3-ol]", "EC50": 725},
      {"compound": "CS(C)(=O)=Nc1ccc(-c2ccc(-c3nc4[nH]c(O[C@@H]5CO[C@H]6[C@@H]5OC[C@H]6O)nc4cc3Cl)cc2)nc1", "note": "[Example 30, N-(2-(4-(6-Chloro-2-((3R,3aR,6R,6aR)-6-hydroxyhexahydrofuro[3,2-b]furan-3-yloxy)-3H-imidazo[4,5-b]pyridin-5-yl)phenyl)pyridin-5-yl)-S,S-dimethylsulfoximide]", "EC50": 2},
      {"compound": "CS(C)(=O)=Nc1ccc(-c2ccc(-c3nc4[nH]c(O[C@@H]5CO[C@H]6[C@@H]5OC[C@H]6O)nc4cc3Cl)cn2)cc1", "note": "[Example 32, N-(4-{5-[6-Chloro-2-((3R,3aR,6R,6aR)-6-hydroxyhexahydrofuro[3,2-b]furan-3-yloxy)-3H-imidazo[4,5-b]pyridin-5-yl]-pyridin-2-yl}-phenyl)-S,S-dimethylsulfoximide]", "EC50": 13},
      {"compound": "CS(=N)(=O)[C@H]1CC[C@@H](c2ccc(-c3nc4[nH]c(O[C@@H]5CO[C@H]6[C@@H]5OC[C@H]6O)nc4cc3Cl)cc2)CC1", "note": "(stereo partly drawn) [Example 33, cis-(3R,3aR,6R,6aR)-6-(6-Chloro-5-[4-{4-(S-methylsulfonimidoyl)-cyclohexyl}-phenyl]-3H-imidazo[4,5-b]pyridin-2-yloxy)-hexahydro-furo[3,2-b]furan-3-ol]", "EC50": 265},
      {"compound": "CS(C)(=O)=NCc1cccc(-c2ccc(-c3nc4[nH]c(O[C@@H]5CO[C@H]6[C@@H]5OC[C@H]6O)nc4cc3Cl)cc2)n1", "note": "[Example 35, N-(2-(4-(6-Chloro-2-((3R,3aR,6R,6aR)-6-hydroxyhexahydrofuro[3,2-b]furan-3-yloxy)-3H-imidazo[4,5-b]pyridin-5-yl)phenyl)pyridin-6-ylmethyl)-S,S-dimethylsulfoximide]", "EC50": 87},
      {"compound": "CS(C)(=O)=Nc1ccnc(-c2ccc(-c3nc4[nH]c(O[C@@H]5CO[C@H]6[C@@H]5OC[C@H]6O)nc4cc3Cl)cc2)c1", "note": "[Example 37, N-(2-{4-[6-Chloro-2-((3R,3aR,6R,6aR)-6-hydroxyhexahydrofuro[3,2-b]furan-3-yloxy)-3H-imidazo[4,5-b]pyridin-5-yl]-phenyl}-pyridin-4-yl)-S,S-dimethylsulfoximide]", "EC50": 47},
      {"compound": "CS(C)(=O)=NCc1cccc(-c2ccc(-c3nc4[nH]c(O[C@@H]5CO[C@H]6[C@@H]5OC[C@H]6O)nc4cc3Cl)cc2)c1", "note": "[Example 38, N-(4′-(6-Chloro-2-((3R,3aR,6R,6aR)-6-hydroxyhexahydrofuro[3,2-b]furan-3-yloxy)-3H-imidazo[4,5-b]pyridin-5-yl)biphenyl-3-ylmethyl)-S,S-dimethylsulfoximide]", "EC50": 704},
      {"compound": "CS(C)(=O)=Nc1cnc(-c2ccc(-c3nc4[nH]c(O[C@@H]5CO[C@H]6[C@@H]5OC[C@H]6O)nc4cc3Cl)cc2)cn1", "note": "[Example 39, N-(5-{4-[6-Chloro-2-((3R,3aR,6R,6aR)-6-hydroxyhexahydrofuro[3,2-b]furan-3-yloxy)-3H-imidazo[4,5-b]pyridin-5-yl]-phenyl}-pyrazin-2-yl)-S,S-dimethylsulfoximide]", "EC50": 8},
      {"compound": "N=S1(=O)CC=C(c2ccc(-c3nc4[nH]c(O[C@@H]5CO[C@H]6[C@@H]5OC[C@H]6O)nc4cc3Cl)cc2)CC1", "note": "(stereo partly shown) [Example 40]", "EC50": 50},
      {"compound": "CS(=N)(=O)c1cccc(-c2ccc(-c3nc4[nH]c(O[C@@H]5CO[C@H]6[C@@H]5OC[C@H]6O)nc4cc3Cl)cc2)c1", "note": "(stereo partly drawn) [Example 41, (3R,3aR,6R,6aR)-6-(6-Chloro-5-(3′-(S-methylsulfonimidoyl)biphenyl-4-yl)-3H-imidazo[4,5-b]pyridin-2-yloxy)hexahydrofuro[3,2-b]furan-3-ol]", "EC50": 209},
      {"compound": "CS(C)(=O)=Nc1ccc(-c2ncc(-c3nc4[nH]c(O[C@@H]5CO[C@H]6[C@@H]5OC[C@H]6O)nc4cc3Cl)cn2)cc1", "note": "[Example 42, N-(4-{5-[6-Chloro-2-((3R,3aR,6R,6aR)-6-hydroxyhexahydrofuro[3,2-b]furan-3-yloxy)-3H-imidazo[4,5-b]pyridin-5-yl]-pyrimidin-2-yl}-phenyl)-S,S-dimethylsulfoximide]", "EC50": 410},
      {"compound": "CS(C)(=O)=Nc1ccc2c(c1)CN(c1ccc(-c3nc4[nH]c(O[C@@H]5CO[C@H]6[C@@H]5OC[C@H]6O)nc4cc3Cl)cc1)C2", "note": "[Example 43, N-(2-{4-[6-Chloro-2-((3R,3aR,6R,6aR)-6-hydroxyhexahydrofuro[3,2-b]furan-3-yloxy)-3H-imidazo[4,5-b]pyridin-5-yl]-phenyl}-2,3-dihydro-1H-isoindol-5-yl)-S,S-dimethylsulfoximide]", "EC50": 293},
      {"compound": "CS(C)(=O)=Nc1ccc2c(n1)CN(c1ccc(-c3nc4[nH]c(O[C@@H]5CO[C@H]6[C@@H]5OC[C@H]6O)nc4cc3Cl)cc1)C2", "note": "[Example 44, N-(6-{4-[6-Chloro-2-((3R,3aR,6R,6aR)-6-hydroxyhexahydrofuro[3,2-b]furan-3-yloxy)-3H-imidazo[4,5-b]pyridin-5-yl]-phenyl}-6,7-dihydro-5H-pyrrolo[3,4-b]pyridin-2-yl)-S,S-dimethylsulfoximide]", "EC50": 66},
      {"compound": "CS(C)(=O)=NCc1ccnc(-c2ccc(-c3nc4[nH]c(O[C@@H]5CO[C@H]6[C@@H]5OC[C@H]6O)nc4cc3Cl)cc2)c1", "note": "[Example 46, N-(2-(4-(6-Chloro-2-((3R,3aR,6R,6aR)-6-hydroxyhexahydrofuro[3,2-b]furan-3-yloxy)-3H-imidazo[4,5-b]pyridin-5-yl)phenyl)pyridin-4-ylmethyl)-S,S-dimethylsulfoximide]", "EC50": 37},
      {"compound": "CS(C)(=O)=Nc1cccc(-c2ccc(-c3nc4[nH]c(O[C@@H]5CO[C@H]6[C@@H]5OC[C@H]6O)nc4cc3Cl)cc2)n1", "note": "[Example 47, N-(6-{4-[6-Chloro-2-((3R,3aR,6R,6aR)-6-hydroxyhexahydrofuro[3,2-b]furan-3-yloxy)-3H-imidazo[4,5-b]pyridin-5-yl]-phenyl}-pyridin-2-yl)-S,S-dimethylsulfoximide]", "EC50": 67},
      {"compound": "CS(C)(=O)=NCc1ccc(-c2ccc(-c3nc4[nH]c(O[C@@H]5CO[C@H]6[C@@H]5OC[C@H]6O)nc4cc3Cl)cc2)nc1", "note": "[Example 48, N-(6-(4-(6-Chloro-2-((3R,3aR,6R,6aR)-6-hydroxyhexahydrofuro[3,2-b]furan-3-yloxy)-3H-imidazo[4,5-b]pyridin-5-yl)phenyl)pyridin-3-ylmethyl)-S,S-dimethylsulfoximide]", "EC50": 16},
      {"compound": "CS(=N)(=O)c1cnc(-c2ccc(-c3nc4[nH]c(O[C@@H]5CO[C@H]6[C@@H]5OC[C@H]6O)nc4cc3Cl)cc2)nc1", "note": "(stereo partly drawn) [Example 49, (3R,3aR,6R,6aR)-6-(6-Chloro-5-(4-(5-(S-methylsulfonimidoyl)pyrimidin-2-yl)phenyl)-3H-imidazo[4,5-b]pyridin-2-yloxy)hexahydrofuro[3,2-b]furan-3-ol]", "EC50": 26},
      {"compound": "CS(C)(=O)=NCc1cc(-c2ccc(-c3nc4[nH]c(O[C@@H]5CO[C@H]6[C@@H]5OC[C@H]6O)nc4cc3Cl)cc2)ccn1", "note": "[Example 53]", "EC50": 56}
    ]}
  ]
}
